Experimental data from US11567065B2, “Measuring frequency of pathogen-specific T cells in peripheral blood” (THOMAS JEFFERSON UNIVERSITY, priority 2015, dated 2023).

Test system: 68A62 CTL
Assay: CaFlux assay: Ca2+ flux in monolayer of 68A62 CTL
Type: cell-based, human
Details: FIG. 4A
Method: 10^6 cells in 1 ml of PBS were loaded with Fluo-4 (Life Technologies) at 2-4 μM for 30 min at 37° C. in the presence of 0.02% pluoronic acid F-127 and 4 mM Probenecid. The cells were washed free of unreacted reagents and incubated at 37° C. for additional 30 min. The cells were then re-suspended in the assay buffer (Dulbecco's PBS containing 1 mM CaCl2, 2 mM MgCl2, 5 mM glucose, and 0.025% BSA) and used for Ca2+ flux analysis.
Glass bottom of 96 well MatTec plates was covered with poly-L-Lysine (Sigma, mol wt>300,000) at 0.1 mg/ml for 1 hr at room temperature. After washing with DPBS and dd water, TS2/4 non-blocking mAb specific for LFA-1 were added to the plate at concentration 10 μg/ml overnight & 4° C. The wells were washed with DPBS, and 3×10^5 Fluo-4-labeled T cells in 100 μl of the assay buffer were added to each well. The plates were centrifuged for 700 g for one minute and were incubated for 30 min at room temperature prior to the imaging. […] The quality of T cell monolayer was assessed using bright field microscopy.
To identify responding T cells we imaged T-cell monolayers before (background measurement) and after (response) addition of the stimulatory signal such as agonist peptide. […] The average intensity of images prior and after the T-cell stimulation at various time points and the numbers of individual responding cells per imaging field were determined by MetaMorph software.

## ILKEPVHGV (IV9)
  time to maximum of Ca2+ increase following stimulation: 2 to 3 min
